Source: US5399543A, “3-[4-(phenylmethoxy)phenyl]-1-substituted-6-haloalkyl-uracil herbicides” (FMC Corporation, priority 1993, dated 1995)

How the values were obtained:
Soybean [1] = assay: Preemergence herbicidal activity, soybean; format: in vivo, Glycine max var. Williams; conditions: Glycine max, pre-emergence, 0.3 kg/ha, after 17-21 days, read-out: Preemergence herbicidal activity (% control), Soybean
Method: (§1) The 3-[4-(phenylmethoxy)phenyl]-1-substituted-6-haloalkyluracil herbicides of this invention were tested for pre- and postemergence herbicidal activity using a variety of crops and weeds. The test plants included soybean (Glycine max var. Williams), field corn (Zea mays var. Agway 425X), wheat (Triticum aestivum var. Wheaton), morningglory (Ipomea lacunosa or Ipomea hederacea), velvetleaf (Abutilon theophrasti), green foxtail (Setaria viridis), Johnsongrass (Sorghum halepense), blackgrass (Aloepecurus myosuroides), common chickweed (Stellaria media), and common cocklebur (Xanthium pensylvanicum).
(§2) For preemergence testing, two disposable fiber flats (8 cm×15 cm×25 cm) for each rate of application of each candidate herbicide were filled to an approximate depth of 6.5 cm with steam-sterilized sandy loam soil. The soil was leveled and impressed with a template to provide five evenly spaced furrows 13 cm long and 0.5 cm deep in each flat. Seeds of soybean, wheat, corn, green foxtail, and johnsongrass were planted in the furrows of the first flat, and seeds of velvetleaf, morningglory, common chickweed, cocklebur, and blackgrass were planted in the furrows of the second flat. The five-row template was employed to firmly press the seeds into place. A topping soil of equal portions of sand and sandy loam soil was placed uniformly on top of each flat to a depth of approximately 0.5 cm. Flats for postemergence testing were prepared in the same manner except that they were planted 8-12 days prior to the preemergence flats and were placed in a greenhouse and watered, thus allowing the seeds to germinate and the foliage to develop.
(§3) In both pre- and postemergence tests, a stock solution of the candidate herbicide was prepared by dissolving 0.27 g of the compound in 20 mL of water/acetone (50/50) containing 0.5% v/v sorbitan monolaurate. For an application rate of 3000 g/ha of herbicide a 10 mL portion of the stock solution was diluted with water/acetone (50/50) to 45 mL.
(§4) The preemergence flats were initially subjected to a light water spray. The four flats were placed two by two along a conveyor belt (i.e., the two preemergence followed by the two postemergence flats). The conveyor belt fed under a spray nozzle mounted about ten inches above the postemergent foliage. The preemergent flats were elevated on the belt so that the soil surface was at the same level below the spray nozzle as the foliage canopy of the postemergent plants. The spray of herbicidal solution was commenced and once stabilized, the flats were passed under the spray at a speed to receive a coverage equivalent of 1000 L/ha. At this coverage the application rates are those shown in the above table for the individual herbicidal solutions. The preemergence flats were watered immediately thereafter, placed in the greenhouse and watered regularly at the soil surface. The postemergence flats were immediately placed in the greenhouse and not watered until 24 hours after treatment with the test solution. Thereafter they were regularly watered at ground level. After 17-21 days the plants were examined and the phytotoxicity data were recorded.
(§5) Herbicidal activity data at selected application rates are given for various compounds of this invention in Table 2 and Table 3. The test compounds are identified by numbers which correspond to those in Table 1.
(§6) Phytotoxicity data were taken as percent control. Percent control was determined by a method similar to the 0 to 100 rating system disclosed in "Research Methods in Weed Science," 2nd ed., B. Truelove, Ed.; Southern Weed Science Society; Auburn University, Auburn, Ala., 1977.

Wheat [2] = assay: Preemergence herbicidal activity, wheat; format: in vivo, Triticum aestivum var. Wheaton; conditions: Triticum aestivum, pre-emergence, 0.3 kg/ha, after 17-21 days, read-out: Preemergence herbicidal activity (% control), Wheat
Method: as §1, §2, §3, §4, §5, §6

Corn [3] = assay: Preemergence herbicidal activity, corn; format: in vivo, Zea mays var. Agway 425X; conditions: Zea mays, pre-emergence, 0.3 kg/ha, after 17-21 days, read-out: Preemergence herbicidal activity (% control), Corn
Method: as §1, §2, §3, §4, §5, §6

Velvetleaf [4] = assay: Preemergence herbicidal activity, velvetleaf; format: in vivo; conditions: Abutilon theophrasti, pre-emergence, 0.3 kg/ha, after 17-21 days, read-out: Preemergence herbicidal activity (% control), Velvetleaf
Method: as §1, §2, §3, §4, §5, §6

Morningglory [5] = assay: Preemergence herbicidal activity, morningglory; format: in vivo, Ipomea lacunosa or Ipomea hederacea; conditions: Ipomoea, pre-emergence, 0.3 kg/ha, after 17-21 days, read-out: Preemergence herbicidal activity (% control), Morningglory
Method: as §1, §2, §3, §4, §5, §6

Chickweed [6] = assay: Preemergence herbicidal activity, chickweed; format: in vivo; conditions: Stellaria media, pre-emergence, 0.3 kg/ha, after 17-21 days, read-out: Preemergence herbicidal activity (% control), Chickweed
Method: as §1, §2, §3, §4, §5, §6

Cocklebur [7] = assay: Preemergence herbicidal activity, cocklebur; format: in vivo, Xanthium pensylvanicum; conditions: Xanthium strumarium, pre-emergence, 0.3 kg/ha, after 17-21 days, read-out: Preemergence herbicidal activity (% control), Cocklebur
Method: as §1, §2, §3, §4, §5, §6

Blackgrass [8] = assay: Preemergence herbicidal activity, blackgrass; format: in vivo, Aloepecurus myosuroides; conditions: Alopecurus myosuroides, pre-emergence, 0.3 kg/ha, after 17-21 days, read-out: Preemergence herbicidal activity (% control), Blackgrass
Method: as §1, §2, §3, §4, §5, §6

Green foxtail [9] = assay: Preemergence herbicidal activity, green foxtail; format: in vivo; conditions: Setaria viridis, pre-emergence, 0.3 kg/ha, after 17-21 days, read-out: Preemergence herbicidal activity (% control), Green foxtail
Method: as §1, §2, §3, §4, §5, §6

Johnsongrass [10] = assay: Preemergence herbicidal activity, johnsongrass; format: in vivo; conditions: Sorghum halepense, pre-emergence, 0.3 kg/ha, after 17-21 days, read-out: Preemergence herbicidal activity (% control), Johnsongrass
Method: as §1, §2, §3, §4, §5, §6

Soybean [11] = assay: Postemergence herbicidal activity, soybean; format: in vivo, Glycine max var. Williams; conditions: Glycine max, post-emergence, 0.3 kg/ha, after 17-21 days, read-out: Postemergence herbicidal activity (% control), Soybean
Method: as §1, §2, §3, §4, §5, §6

Wheat [12] = assay: Postemergence herbicidal activity, wheat; format: in vivo, Triticum aestivum var. Wheaton; conditions: Triticum aestivum, post-emergence, 0.3 kg/ha, after 17-21 days, read-out: Postemergence herbicidal activity (% control), Wheat
Method: as §1, §2, §3, §4, §5, §6

Corn [13] = assay: Postemergence herbicidal activity, corn; format: in vivo, Zea mays var. Agway 425X; conditions: Zea mays, post-emergence, 0.3 kg/ha, after 17-21 days, read-out: Postemergence herbicidal activity (% control), Corn
Method: as §1, §2, §3, §4, §5, §6

Velvetleaf [14] = assay: Postemergence herbicidal activity, velvetleaf; format: in vivo; conditions: Abutilon theophrasti, post-emergence, 0.3 kg/ha, after 17-21 days, read-out: Postemergence herbicidal activity (% control), Velvetleaf
Method: as §1, §2, §3, §4, §5, §6

Morningglory [15] = assay: Postemergence herbicidal activity, morningglory; format: in vivo, Ipomea lacunosa or Ipomea hederacea; conditions: Ipomoea, post-emergence, 0.3 kg/ha, after 17-21 days, read-out: Postemergence herbicidal activity (% control), Morningglory
Method: as §1, §2, §3, §4, §5, §6

Chickweed [16] = assay: Postemergence herbicidal activity, chickweed; format: in vivo; conditions: Stellaria media, post-emergence, 0.3 kg/ha, after 17-21 days, read-out: Postemergence herbicidal activity (% control), Chickweed
Method: as §1, §2, §3, §4, §5, §6

Cocklebur [17] = assay: Postemergence herbicidal activity, cocklebur; format: in vivo, Xanthium pensylvanicum; conditions: Xanthium strumarium, post-emergence, 0.3 kg/ha, after 17-21 days, read-out: Postemergence herbicidal activity (% control), Cocklebur
Method: as §1, §2, §3, §4, §5, §6

Blackgrass [18] = assay: Postemergence herbicidal activity, blackgrass; format: in vivo, Aloepecurus myosuroides; conditions: Alopecurus myosuroides, post-emergence, 0.3 kg/ha, after 17-21 days, read-out: Postemergence herbicidal activity (% control), Blackgrass
Method: as §1, §2, §3, §4, §5, §6

Green foxtail [19] = assay: Postemergence herbicidal activity, green foxtail; format: in vivo; conditions: Setaria viridis, post-emergence, 0.3 kg/ha, after 17-21 days, read-out: Postemergence herbicidal activity (% control), Green foxtail
Method: as §1, §2, §3, §4, §5, §6

Johnsongrass [20] = assay: Postemergence herbicidal activity, johnsongrass; format: in vivo; conditions: Sorghum halepense, post-emergence, 0.3 kg/ha, after 17-21 days, read-out: Postemergence herbicidal activity (% control), Johnsongrass
Method: as §1, §2, §3, §4, §5, §6

| Structure (SMILES) | activity at 300 g/ha (Soybean [1]) | activity at 300 g/ha (Wheat [2]) | activity at 300 g/ha (Corn [3]) | activity at 300 g/ha (Velvetleaf [4]) | activity at 300 g/ha (Morningglory [5]) | activity at 300 g/ha (Chickweed [6]) | activity at 300 g/ha (Cocklebur [7]) | activity at 300 g/ha (Blackgrass [8]) | activity at 300 g/ha (Green foxtail [9]) | activity at 300 g/ha (Johnsongrass [10]) | activity at 300 g/ha (Soybean [11]) | activity at 300 g/ha (Wheat [12]) | activity at 300 g/ha (Corn [13]) | activity at 300 g/ha (Velvetleaf [14]) | activity at 300 g/ha (Morningglory [15]) | activity at 300 g/ha (Chickweed [16]) | activity at 300 g/ha (Cocklebur [17]) | activity at 300 g/ha (Blackgrass [18]) | activity at 300 g/ha (Green foxtail [19]) | activity at 300 g/ha (Johnsongrass [20]) |
| --- | --- | --- | --- | --- | --- | --- | --- | --- | --- | --- | --- | --- | --- | --- | --- | --- | --- | --- | --- | --- |
| Cn1c(C(F)(F)F)cc(=O)n(-c2ccc(OCc3ccc(Cl)cc3Cl)cc2)c1=O [Compound 6] | 20% | 0% | 10% | 100% | 45% | 10% | 10% | 0% | 100% | 60% | 40% | 0% | 20% | 80% | 50% | 0% | 60% | 0% | 40% | 20% |
| COc1cccc(COc2ccc(-n3c(=O)cc(C(F)(F)F)n(C)c3=O)cc2)c1 [Compound 8] | 10% | 15% | 35% | 100% | 65% | 90% | 0% | 10% | 100% | 80% | 85% | 10% | 85% | 100% | 100% | 100% | 100% | 10% | 100% | 100% |
| Cn1c(C(F)(F)F)cc(=O)n(-c2ccc(OCc3cc(Cl)cc(Cl)c3)cc2)c1=O [Compound 43] | 0% | 0% | 0% | 0% | 0% | 0% | 0% | 0% | 0% | 0% | 10% | 0% | 30% | 0% | 10% | 0% | 0% | 0% | 0% | 30% |
